In patent publication US6747062B2, “Regulation of wound healing by nitric oxide” (New York Society for the Ruptured and Crippled Maintaining …, priority 1994, dated 2004):

Legend:
[1] = test system: cultured bovine chondrocytes; assay: NO2- release from cultured bovine chondrocytes (Greiss reaction); assay type: cell-based; conditions: for release of NO2-: endotoxin at 1 μg/ml, no constitutive release
[2] = test system: surgically divided Achilles tendon; assay: Rat Achilles tendon healing model with nitric oxide synthase inhibition (morphology, biomechanics); assay type: in vivo; conditions: for distance separating the cut ends of the healing tendon (5-8 mm): 1 mg/ml in drinking water
Protocol: (§1) Rat model system: The rat achilles tendon model is used to test model compounds for biological activity i.e. the ability to promote or inhibit wound healing in vivo. As described in Example 1 below, one Achilles tendon in each rat is transsected surgically, and allowed to heal for periods ranging from 6 hours to 14 days. At each time point, the degree of healing is first assessed by measuring walking speed. The animals are then sacrificed and the tendons are excised and subjected to biomechanical testing and morphological and immunochemical analysis. NOS activity is measured in the excised tendons as above. Finally, body and muscle weight are monitored, and systemic and local toxicity are assessed by macroscopic and microscopic post-mortem examination. It will be understood by a skilled practitioner that any small mammal suitable for testing may be used, including rats, mice, rabbits, guinea pigs, and the like.
(§2) In the following NOS inhibition experiments, animals were fed the indicated chemicals at 1 mg/ml in their drinking water ad libitum for four days prior to surgical division of the right Achilles tendon and throughout the post-operative experimental period, with the exception of experiment (c)*, where the drugs were given from the immediate post-operative period:
(a) 1 week D-NAME (n=9) vs L-NAME (n=11); walking speed and biomechanical analyses at day 7. […]
The rats were housed in beta-chip-lined plastic cages, two animals per cage, with a 12-hour light, 12 hour dark cycle in an animal care facility and fed rat chow and water ad libitum. Anaesthesia was achieved by intraperitoneal injection of 80 mg/kg ketamine (Park Davis, Morris Plains, N.J.) and 5 mg/kg xylazine (Miles Inc, Shawnee Mission, Kans.). All surgical procedures were performed under sterile conditions with the aid of 2.5x microsurgical loops. The surgical procedure was similar to that previously outlined. A 3 cm midline incision was made over the right Achilles tendon and the Achilles tendon and plantaris were isolated from the surrounding fascia. The underlying fascia was disrupted by spreading with a pair of small straight scissors. The tendinous portion of the plantaris was removed and the Achilles tendon was divided cleanly in its mid-substance, 0.5 cm from its calcaneal insertion with a scalpel. The skin was then sutured with two simple nylon sutures of 5-0 ethilon monofilament nylon on a PC-1 cutting needle (Ethicon Inc, N.J.). No operation was performed on the left, uninjured, hind limb. No cast or dressings were applied and the animals were unrestricted during the healing phase. The animals were sacrificed by CO2 inhalation.
One hundred and fifty two harvested lower limbs were placed in phosphate buffered saline (PBS), frozen and stored at −70° C. for an average of seven days prior to testing. On the day prior to testing the specimens were thawed. All extraneous soft and hard tissues were removed by blunt and sharp dissection from the Achilles tendon, formerly intramuscular tendinous fibers and the hind foot. Area measurements of the uninjured and sham operated tendons were made with an area micrometer (Mitutoyo, Tokyo, Japan). Length measurements were made with a 0.02 mm calibrated caliper (Draper, Japan). The formerly intramuscular tendinous fibers were then secured between two strips of white labelling tape with Thick Gel Super Glue® (Super Glue Corporation, N.Y.) such that the distal edge of the tape was 1.0 cm from the calcaneal insertion. The calcaneus was fixed at 45° in an adjustable rubber-gripped clamp (Panavise, Sparks, Nev.). Throughout the procedure care was taken to ensure that neither the Super Glue® nor the self curing plastic contaminated the tendon proper and the specimens were kept moist by application of PBS. Mechanical testing was carried out using a MTS 810 material test system (MTS Systems Corporation, PN). Each specimen underwent a constant velocity ramp to failure test at 1 cm/sec (≈100%/sec). […]

[3] = Body and muscle weight of rats fed the chemicals; assay type: in vivo, rat; conditions: for increase of weight: over 22 days, same dose
Protocol: as §2
(§3) (d) 3 weeks D-NAME (n=8), L-NAME (n=8), L-arginine (n=8), walking speed assessments at days 1,4,8,11,15,18,22, biomechanical assessment, muscle weight and autopsy at day 22.
All animals were weighed prior to surgery, at weekly intervals, and at sacrifice. After sacrifice the right triceps of rats fed D-NAME (n=8), L-NAME (n=8) or L-arginine (n=8) for three weeks was harvested, weighed for wet weight, lyophilized for dry weight and the water content calculated.

[4] = Walking speed assessment in a confined walkway; assay type: in vivo, rat
Protocol: as §2
The animals were tested in a confined walkway with a dark shelter at the end. Each rat was held by its chest at the start of the walkway and then allowed to walk/run to the dark shelter at the end of the walkway. The time taken for the rat to cover the first half (21.5 cm) and the total length (43 cm) of the walkway was measured by individuals blinded to the treatment groups.

[5] = Other systemic effects and post mortem examination; assay type: in vivo, rat; conditions: for systemic changes (palsies, coat, dyspnoea, death, post mortem lesions): 3 weeks feeding
Protocol: as §1, §2, §3

[6] = fed from the immediate post-operative period, day 15

## O=C(O)CN(CCOCCOCCN(CC(=O)O)CC(=O)O)CC(=O)O [EGTA]
[1]
  inhibition of endotoxin-induced NO2- production: not inhibited

## COC(=O)[C@@H](N)CCCNC(=N)N[N+](=O)[O-] [L-NAME, Nw-nitro-L-arginine methyl ester]
[2]
  distance separating the cut ends of the healing tendon (5-8 mm): did not change
[2]; L-NAME versus D-NAME fed rats
  microscopic appearance of the healing tissue (light microscopy): no subjective differences
[2]; day 7
  failure load of uninjured Achilles tendon constructs: unaffected
[2]; day 7, given orally 1 mg/ml in drinking water from four days prior to surgery, p<0.01 vs D-NAME
  inhibition of cross-sectional area of healing Achilles tendon: 30%
[2]; day 7, p<0.01
  reduction in failure load on the formerly divided side: 24%
[2]; day 15, given orally from four days prior to surgery, p<0.001
  inhibition of cross-sectional area of healing Achilles tendon: 50%
[2]; day 22, given orally from four days prior to surgery, p<0.05
  inhibition of cross-sectional area of healing Achilles tendon: 17%
[2]; [6]
  failure load: failed to show any changes
  tendon cross-sectional area: failed to show any changes
[2]; rat, in vivo
  toe displacement, maximum displacement, stiffness, energy, modulus or maximum stress of surgically divided or uninjured Achilles constructs: did not affect
[3]; 1 mg/ml in drinking water
  body weight over the first 15 days of treatment: either failed to gain weight or lost weight
[3]; by day 22, p<0.001
  lighter than initial preoperative weight: 30%
[3]; day 22, p<0.01
  loss in dry muscle weight (right triceps): 40%
  loss in wet muscle weight (right triceps): 30%
[3]; [6]
  systemic change: weight: weight loss
[4]; after day 11
  behavior and walking speed: progressively quieter, slower
[4]; [6]
  systemic change: walking speed: loss of walking speed
[4]; first week of treatment
  behavior or walking speed: no changes
[5]; day 21, group of eight rats
  rats that died: Two
[5]; day 22, all rats
  post mortem examination findings: scant body fat, empty small intestines, myocardial lesions consistent with infarction and granular kidneys
[5]; from day 15
  rats that developed severe dyspnoea: ⅝
[5]; from day 15, all rats
  coat and peri-orbital changes: lost coat texture and developed peri-orbital rubor
[5]; from day 15, group of eight rats
  rats that developed motor palsies of upper or lower limbs: Four out of the eight
[1]
  inhibition of endotoxin-induced NO2- production: completely inhibited

## COC(=O)[C@H](N)CCCN=C(N)N[N+](=O)[O-] [D-NAME, Nw-nitro-D-arginine methyl ester]
[3]
  increase of weight: 30%
[5]
  systemic changes (palsies, coat, dyspnoea, death, post mortem lesions): failed to display any of the above changes

## N=C(N)NCCC[C@H](N)C(=O)O [L-arginine]
[2]
  distance separating the cut ends of the healing tendon (5-8 mm): did not change
[3]; day 22
  effect on muscle weight: no effect
[3]
  increase of weight: 30%
[5]
  systemic changes (palsies, coat, dyspnoea, death, post mortem lesions): failed to display any of the above changes

## TNF-α
[1]
  release of NO2-: 100 nmol NO2^−/106 cells/24 hours

## IL-1β: inflammatory mediator
[1]
  release of NO2-: 100 nmol NO2^−/106 cells/24 hours
